SMILES strings stand for the structures.

For this test, the target named is TRPM2 (transient receptor potential cation channel, subfamily melastatin, member 2) (Homo sapiens, UniProt O94759). The test can be described thus: whole-cell patch clamp with ADPR infused through the pipette. The test is classed as cell-based. A general note: Patch clamp records ionic current or voltage across a cell membrane.
TRPM2 (transient receptor potential cation channel, subfamily melastatin, member 2), sequence (O94759 whole entry, the tested form may be a part): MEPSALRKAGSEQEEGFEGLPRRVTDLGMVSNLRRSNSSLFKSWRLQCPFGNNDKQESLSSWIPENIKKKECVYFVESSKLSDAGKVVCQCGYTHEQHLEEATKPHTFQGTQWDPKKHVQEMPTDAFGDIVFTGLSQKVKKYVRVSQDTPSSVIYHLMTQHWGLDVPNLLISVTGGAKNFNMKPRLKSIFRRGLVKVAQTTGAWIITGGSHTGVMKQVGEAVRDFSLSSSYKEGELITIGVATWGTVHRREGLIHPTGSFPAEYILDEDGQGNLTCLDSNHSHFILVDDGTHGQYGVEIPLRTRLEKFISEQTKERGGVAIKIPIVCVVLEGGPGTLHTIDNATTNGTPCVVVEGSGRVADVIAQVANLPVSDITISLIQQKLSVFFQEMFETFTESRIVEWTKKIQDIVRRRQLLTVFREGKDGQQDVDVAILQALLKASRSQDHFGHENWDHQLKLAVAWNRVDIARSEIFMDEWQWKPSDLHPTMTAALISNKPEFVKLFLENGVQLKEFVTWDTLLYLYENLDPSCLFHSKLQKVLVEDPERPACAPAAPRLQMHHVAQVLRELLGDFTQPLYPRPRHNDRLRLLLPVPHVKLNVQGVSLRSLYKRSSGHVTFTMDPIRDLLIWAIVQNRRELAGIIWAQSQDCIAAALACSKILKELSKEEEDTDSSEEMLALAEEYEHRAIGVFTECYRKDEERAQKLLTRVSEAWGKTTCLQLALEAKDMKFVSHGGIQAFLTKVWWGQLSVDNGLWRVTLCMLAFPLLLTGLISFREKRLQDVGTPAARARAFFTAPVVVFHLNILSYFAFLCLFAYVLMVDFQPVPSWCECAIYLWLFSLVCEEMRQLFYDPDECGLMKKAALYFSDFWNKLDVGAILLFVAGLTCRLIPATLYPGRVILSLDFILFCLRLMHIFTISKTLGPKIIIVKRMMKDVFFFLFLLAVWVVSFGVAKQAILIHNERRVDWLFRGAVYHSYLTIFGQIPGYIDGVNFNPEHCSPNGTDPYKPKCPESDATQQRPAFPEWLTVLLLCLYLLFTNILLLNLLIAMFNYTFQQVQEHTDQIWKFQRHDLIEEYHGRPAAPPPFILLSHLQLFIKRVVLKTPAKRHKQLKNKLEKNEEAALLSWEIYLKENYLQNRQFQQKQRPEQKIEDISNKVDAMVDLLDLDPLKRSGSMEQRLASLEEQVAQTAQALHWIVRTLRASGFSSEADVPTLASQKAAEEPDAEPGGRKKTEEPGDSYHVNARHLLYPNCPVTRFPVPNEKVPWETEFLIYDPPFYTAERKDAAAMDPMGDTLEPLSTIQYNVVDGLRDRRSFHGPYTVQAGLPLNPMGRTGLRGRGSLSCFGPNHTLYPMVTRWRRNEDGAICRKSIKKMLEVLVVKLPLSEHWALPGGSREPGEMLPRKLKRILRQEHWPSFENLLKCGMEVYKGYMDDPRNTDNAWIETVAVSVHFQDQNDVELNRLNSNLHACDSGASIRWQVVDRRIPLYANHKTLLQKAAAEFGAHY

Take `Nc1ncnc2c1ncn2[C@@H]1O[C@H](COP(=O)(O)OP(=O)(O)OC[C@H]2OC(O)[C@H](O)[C@@H]2O)[C@@H](O)[C@H]1O` (stereo partly shown) [ADPR]: the EC50 – broadly, the midpoint of the concentration-response curve – was 133 µM.

The values above are taken from PMC2782309 (2009).
